From patent US6797255B1, “Methods and compositions for enhancing magnetic resonance imaging” (Mallinckrodt Inc., priority 1985, dated 2004)

Key:
[1] = Solubility of the complex in water; type: physicochemical
Experimental: (§1) The complex, dihydrogen bis(N-[N′-(2,6-diisopropylphenyl)carbamoylmethyl]iminodiaceto)manganese(II) hydrate, was thus isolated as the hydrated species. The solubility of the complex in water was determined to be approximately 0.1% w/v. The relaxation parameters T1 and T2 of a 10-^−3M solution of the complex in a 90 MHz NMR experiment were determined to be 0.107 sec. and 0.007 sec. respectively. The T1 and T2 values for water are 2.51 sec. and 0.150 sec., respectively.
(§2) The relaxation parameters T1 and T2 of a 10^−3M solution of the complex in a 90 MHz NMR experiment were determined to be 126 milliseconds and 1.5 milliseconds, respectively.

[2] = Relaxation parameters T1 and T2 of a 10^−3M solution in a 90 MHz NMR experiment; type: physicochemical; details: 10-^−3M solution
Experimental: as §1, §2

liver = test: T1 and T2 lowering effects of the gadolinium complex in the liver; details: in vivo
[3] = Toxicity profile of the gadolinium complex; details: in vivo

CC(C)c1cccc(C(C)C)c1NC(=O)CN(CC(=O)[O-])CC(=O)O.CC(C)c1cccc(C(C)C)c1NC(=O)CN(CC(=O)[O-])CC(=O)O.O.[Mn+2] [Example 1]
solubility of the complex in water [1]: approximately 0.1 % w/v
relaxation parameter T1 [2]: 0.107 s
relaxation parameter T2 [2]: 0.007 s

Cc1cccc(C)c1NC(=O)CN(CC(=O)[O-])CC(=O)O.Cc1cccc(C)c1NC(=O)CN(CC(=O)[O-])CC(=O)[O-].O.O.[Gd+3] [hydrogen bis(N-[N′-(2,6-dimethylphenyl)carbamoylmethyl]iminodiaceto)gadolinium(III) dihydrate]
T1 and T2 lowering effects in the liver (liver): relatively poor T1 and T2 lowering effects in the liver
LD50 [3]: about 0.2 mmol/kg
toxicity profile [3]: persistent, delayed toxicity
